Experimental data from US8691817B2, “Sulfonic amide and sulfoximine-substituted diaryl-dihydropyrimidinones and usage thereof” (Bayer Intellectual Property GmbH, priority 2009, dated 2014).
≈ marks a conversion by molar mass, not a printed value.

Experiments:
[1] = target: T1, human neutrophil elastase (HNE) (Homo sapiens, UniProt P08246); assay: In vitro HNE inhibition assay; type: biochemical; settings: HNE concentration of 80 pM; substrate MeOSuc-Ala-Ala-Pro-Val-AMC; 37° C., 2 hours
T1 construct: purchased Serva, Heidelberg
T1 sequence (P08246 30-267): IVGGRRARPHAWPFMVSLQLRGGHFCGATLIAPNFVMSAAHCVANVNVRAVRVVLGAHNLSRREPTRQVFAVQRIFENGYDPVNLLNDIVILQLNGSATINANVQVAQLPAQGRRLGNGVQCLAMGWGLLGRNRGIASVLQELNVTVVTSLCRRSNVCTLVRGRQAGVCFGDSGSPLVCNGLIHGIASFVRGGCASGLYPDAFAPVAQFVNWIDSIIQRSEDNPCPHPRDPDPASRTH
Procedure: The potency of the compounds of the invention is ascertained in an in vitro inhibition assay. The HNE-mediated amidolytic cleavage of a suitable peptide substrate leads in this connection to an increase in the fluorescent light. The signal intensity of the fluorescent light is directly proportional to the enzyme activity.
Enzyme (80 pM HNE; from Serva, Heidelberg) and substrate (20 μM MeOSuc-Ala-Ala-Pro-Val-AMC; from Bachem, Weil am Rhein) are incubated in an assay volume of in total 50 μl of assay buffer (0.1 M HEPES pH 7.4, 0.5 M NaCl, 0.1% w/v BSA, 1% v/v DMSO) in a 384-well microtiter plate in the presence and absence of the test substance at 37° C. for 2 hours.

[2] = Determination of the solubility in PBS buffer pH 6.5; type: physicochemical; settings: 20° C.
Procedure: B-7. Determination of the Solubility Reagents Required: • PBS buffer pH 6.5: 90.00 g of NaCl p.a. […] Preparation of the Starting Solution (Original Solution):
10 μl of the original solution are transferred into a microtiter plate, and 1000 μl of PBS buffer pH 6.5 are added.
From each of the sample solutions, 100 μl of the supernatant are removed and diluted 1:5 and 1:100 with DMSO. From each dilution, a sample is transferred into a vessel suitable for HPLC analysis.
The samples are analysed by RP-HPLC. Quantification is carried out using a two-point calibration curve of the test compound in DMSO. The solubility is expressed in mg/liter. Analysis sequence: 1) calibration solution […]; 2) calibration solution 20 μg/ml; 3) sample solution 1:5; 4) sample solution 1:100.

rat hepatocytes = assay: Hepatocyte assay to determine the metabolic stability; type: in vitro ADME; settings: for Fmax, maximum possible bioavailability after oral administration (well-stirred): rat
Procedure: Seven samples of the incubation solution are taken in a fixed time pattern for the […] analysis in order to determine the half-life (i.e. the degradation) of the compound in each case. Various clearance parameters (CL) and Fmax values are calculated from this half-life (see below).
The Cl and Fmax values represent a measure of the phase 1 and phase 2 metabolism of the compounds in the hepatocytes. In order to minimize the influence of the organic solvent on the enzymes in the incubation mixtures, this concentration is generally limited to 1% (acetonitrile) or 0.1% (DMSO).
A cell count for hepatocytes in the liver of 1.1*10^8 cells/g of liver is used for calculation for all species and breeds.
The calculated parameters and their meaning are: • Fmax well-stirred [%] maximum possible bioavailability after oral administration • Calculation: (1-CLblood well-stirred/QH)*100 • CLblood well-stirred [L/(h*kg)] calculated blood clearance (well-stirred model) • Calculation: (QH*CL′intrinsic)/(QH+CL′intrinsic) • CL′intrinsic [ml/(min*kg] maximum ability of the liver (of the hepatocytes) to metabolize a compound (on the assumption that the hepatic blood flow is not rate-limiting) • Calculation: CL′intrinsic, apparent*species-specific hepatocyte count [1.1* 10^8/g of liver]*species-specific liver weight [g/kg] • CL′intrinsic, apparent [ml/(min*mg)] normalizes the elimination constant by dividing it by the hepatocyte cell count x (x*10^6/ml) employed • Calculation: ke1 [1/min]/(cell count [x*10^6]/incubation volumes [ml]) • (QH=species-specific hepatic blood flow).

| IC50 [1] | CLblood, calculated blood clearance (well-stirred) (rat hepatocytes; hepatocytes) | Fmax, maximum possible bioavailability after oral administration (well-stirred) (rat hepatocytes) | Structure (SMILES) | further results |
| --- | --- | --- | --- | --- |
| 0.7 nM |  |  | CC1=C(C#N)[C@@H](c2ccc(C#N)cc2S(=O)(=O)NCC2CCN(C)C2)NC(=O)N1c1cccc(C(F)(F)F)c1 (stereo partly drawn) [Example 21, 5-cyano-2-{(4S)-5-cyano-6-methyl-2-oxo-1-[3-(trifluoromethyl)phenyl]-1,2,3,4-tetrahydropyrimidin-4-yl}-N-[(1-methylpyrrolidin-3-yl)methyl]-benzenesulfonamide] |  |
| < 0.3 nM | 31.7 mL/min/kg | 54% | CC1=C(C#N)[C@@H](c2ccc(C#N)cc2S(=O)(=O)NCC(N)=O)N(C)C(=O)N1c1cccc(C(F)(F)F)c1 [Example 13, N^2-[(5-Cyano-2-{(4S)-5-cyano-3,6-dimethyl-2-oxo-1-[3-(trifluoromethyl)phenyl]-1,2,3,4-tetrahydropyrimidin-4-yl}phenyl)sulfonyl]glycinamide] |  |
| 0.9 nM | 0 mL/min/kg | 100% | CC1=C(C#N)[C@@H](c2ccc(C#N)cc2S(C)(=N)=O)NC(=O)N1c1cccc(C(F)(F)F)c1 (mixture of isomers) [Example 41, (SS)-(4S)-4-[4-Cyano-2-(S-methylsulfonimidoyl)phenyl]-6-methyl-2-oxo-1-[3-(trifluoromethyl)phenyl]-1,2,3,4-tetrahydropyrimidine-5-carbonitrile or (RS)-(4S)-4-[4-cyano-2-(S-methylsulfonimidoyl)phenyl]-6-methyl-2-oxo-1-[3-(trifluoromethyl)phenyl]-1,2,3,4-tetrahydropyrimidine-5-carbonitrile] |  |
| 4.5 nM |  |  | CC1=C(C#N)[C@@H](c2ccc(C#N)cc2S(=O)(=O)NCCCN2CCCC2=O)NC(=O)N1c1cccc(C(F)(F)F)c1 [Example 14] |  |

More lines, now with the values behind:

| Structure (SMILES) | IC50 [1] | CLblood, calculated blood clearance (well-stirred) (rat hepatocytes; hepatocytes) | Fmax, maximum possible bioavailability after oral administration (well-stirred) (rat hepatocytes) | further results |
| --- | --- | --- | --- | --- |
| CC1=C(C#N)[C@@H](c2ccc(C#N)cc2S(=O)(=O)N2CCOCC2)NC(=O)N1c1cccc(C(F)(F)F)c1 [Example 4, (4S)-4-[4-Cyano-2-(morpholin-4-ylsulfonyl)phenyl]-6-methyl-2-oxo-1-[3-(trifluoromethyl)phenyl]-1,2,3,4-tetrahydropyrimidine-5-carbonitrile] | < 0.3 nM |  |  |  |
| CC1=C(C#N)[C@@H](c2ccc(C#N)cc2S(C)(=N)=O)N(C)C(=O)N1c1cccc(C(F)(F)F)c1 (mixture of isomers) [Example 38, (SS)-(4S)-4-[4-Cyano-2-(S-methylsulfonimidoyl)phenyl]-3,6-dimethyl-2-oxo-1-[3-(trifluoromethyl)phenyl]-1,2,3,4-tetrahydropyrimidine-5-carbonitrile or (RS)-(4S)-4-[4-cyano-2-(S-methylsulfonimidoyl)phenyl]-3,6-dimethyl-2-oxo-1-[3-(trifluoromethyl)phenyl]-1,2,3,4-tetrahydropyrimidine-5-carbonitrile] |  |  |  | Solubility ([2]; 24 hours): 300 µg/mL (≈ 634 µM); CLblood, calculated blood clearance (well-stirred) (rat hepatocytes; after incubation with rat hepatocytes): 0 mL/min/kg |
| CC1=C(C#N)[C@@H](c2ccc(C#N)cc2S(N)(=O)=O)NC(=O)N1c1cccc(C(F)(F)F)c1 [Example 1, 5-Cyano-2-{(4S)-5-cyano-6-methyl-2-oxo-1-[3-(trifluoromethyl)phenyl]-1,2,3,4-tetrahydropyrimidin-4-yl}benzenesulfonamide] | 0.4 nM | 1.7 mL/min/kg | 97% |  |
| CC1=C(C#N)[C@@H](c2ccc(C#N)cc2S(=O)(=O)NCCO)N(C)C(=O)N1c1cccc(C(F)(F)F)c1 [Example 11, 5-Cyano-2-{(4S)-5-cyano-3,6-dimethyl-2-oxo-1-[3-(trifluoromethyl)phenyl]-1,2,3,4-tetrahydropyrimidin-4-yl}-N-(2-hydroxyethyl)benzenesulfonamide] | < 0.3 nM |  |  | solubility at 24 h ([2]; aqueous buffer, kinetic from dmso stock): 300 µg/mL (≈ 577 µM) |
| CNS(=O)(=O)c1cc(C#N)ccc1[C@H]1NC(=O)N(c2cccc(C(F)(F)F)c2)C(C)=C1C#N [Example 2, 5-Cyano-2-{(4S)-5-cyano-6-methyl-2-oxo-1-[3-(trifluoromethyl)phenyl]-1,2,3,4-tetrahydropyrimidin-4-yl}-N-methylbenzenesulfonamide] | < 0.3 nM | 31.7 mL/min/kg | 54% |  |
| CC1=C(C#N)[C@@H](c2ccc(C#N)cc2S(N)(=O)=O)N(C)C(=O)N1c1cccc(C(F)(F)F)c1 [Example 10, 5-Cyano-2-{(4S)-5-cyano-3,6-dimethyl-2-oxo-1-[3-(trifluoromethyl)phenyl]-1,2,3,4-tetrahydropyrimidin-4-yl}benzenesulfonamide] | < 0.3 nM |  |  |  |
| CC1=C(C#N)[C@@H](c2ccc(C#N)cc2S(=O)(=O)N(C)C)NC(=O)N1c1cccc(C(F)(F)F)c1 [Example 3, 5-Cyano-2-{(4S)-5-cyano-6-methyl-2-oxo-1-[3-(trifluoromethyl)phenyl]-1,2,3,4-tetrahydropyrimidin-4-yl}-N,N-dimethylbenzenesulfonamide] | < 0.3 nM |  |  |  |
